For orientation: IC50 means the concentration that inhibits the measured activity by half.

SMILES strings stand for the structures.

The assay has as its target T1, human recombinant P2X7 receptor (Homo sapiens, UniProt Q99572).
T1 construct: expressed in transfected cells
T1 sequence (Q99572 1-595): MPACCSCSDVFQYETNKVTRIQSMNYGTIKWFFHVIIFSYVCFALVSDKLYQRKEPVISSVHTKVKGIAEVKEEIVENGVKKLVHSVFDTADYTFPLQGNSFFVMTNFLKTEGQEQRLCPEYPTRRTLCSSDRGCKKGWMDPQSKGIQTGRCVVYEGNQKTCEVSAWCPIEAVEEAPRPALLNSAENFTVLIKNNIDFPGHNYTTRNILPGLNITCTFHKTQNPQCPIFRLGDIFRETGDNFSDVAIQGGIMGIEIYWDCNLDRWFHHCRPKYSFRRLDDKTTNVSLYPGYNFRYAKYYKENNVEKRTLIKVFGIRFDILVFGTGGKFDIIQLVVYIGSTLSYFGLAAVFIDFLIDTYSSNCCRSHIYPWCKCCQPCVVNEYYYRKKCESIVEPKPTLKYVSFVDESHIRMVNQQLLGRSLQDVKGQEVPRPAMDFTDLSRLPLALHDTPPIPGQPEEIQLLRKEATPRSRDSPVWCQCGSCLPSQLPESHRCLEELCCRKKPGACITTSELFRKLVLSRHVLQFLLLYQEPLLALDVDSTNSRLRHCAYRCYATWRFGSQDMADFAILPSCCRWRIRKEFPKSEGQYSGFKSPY
Description: YO-PRO assay (YO-PRO-1 uptake) in HEK cells stably expressing P2X7. Type of assay: cell-based. As to conditions: HEK-293 cells expressing human recombinant P2X7 receptor; ATP 250 μM, 90 minutes; YO-PRO-1 fluorescence (FLIPR tetra); read-out: IC50 (antagonistic activity with respect to the P2X7 receptor). How it is done: Cell line generation was performed in general according to established molecular cloning protocols. Specifically, RNA was extracted from human whole blood using the Qiagen RNeasy kit (Qiagen, CH) according to the manufacturer's instructions. Subsequently cDNA was made (Superscript II, Invitrogen AG, CH) and the human P2X7 gene (genbank ref. BC011913) was amplified with the following primers: [NT] and [NT] The amplified sequence was subsequently ligated into a pcDNA3.1 (+) NotI, NheI digested plasmid. […] Following a 24 h exposure to DNA, cells were trypsinized and re-seeded at low density in the presence of 250 μg Geneticin. Geneticin resistant cells were then selected during two consecutive rounds of cloning by serial limiting dilution with visual inspection. Individual clones were screened for P2X7 expression by applying ATP and recording the resultant uptake of YO-[…]. Specific cell clones were chosen based on RNA and protein expression. HEK cells stably expressing P2X7 were used to screen drugs using the YO-[…] assay. Cells were grown to confluency in adherent culture at 37° C. in a humidified 5% CO2 incubator (split 1/5 every 3-4 days with DMEM, 10% FCS, 1% Penicillin/Streptomycin, 250 μg/ml Geneticin). Adherent cells were detached by incubation with Trypsine (1 ml per 165 cm^2 dish) for 2 minutes, then washed off with 10 ml PBS (without Mg^2+ and Ca^2+), and resuspended in DMEM, 10% FCS, 1% Penicillin/Streptomycin, no Geneticin. 10'000 cells per well (48 hours before the assay) or 25'000 cells per well (Vi-cell XR (Beckman Coulter) (24 hours before the assay) in 50 μl full medium were seeded on 384-well black-wall, clear bottom plates, that were coated before with 10 μl per well Poly-L-Lysine, incubated for 30-60 minutes at 37° C. and washed once with PBS. Medium was removed from cells and 50 μl of assay buffer containing 0.5 μM YO-[…] was added into the wells. Solutions of antagonist compounds were prepared by serial dilutions of a 10 mM DMSO solution of the antagonist into PBS using a BioMek (Beckman Coulter). Each concentration was performed in duplicate. […] During this time period, four time points were taken. Each time point comprised the average of several measurements made within a few seconds. […] The FLIPR tetra was equipped with Molecular Devices Screen Works system control software to define and run experimental protocols. […] For IC50 measurements the maximum intensity is plotted against the concentration of compound to determine IC50 values.
In the case of `O=C(NCC1(O)CCCCC1)c1cc([S+]([O-])c2ccccn2)ccc1Cl` (racemic) [Example 133, rac-2-Chloro-N-(1-hydroxy-cyclohexylmethyl)-5-(pyridine-2-sulfinyl)-benzamide], the IC50 is 265 nM.
The figure for `O=C(NCC1(O)CCCCC1)c1cc([S+]([O-])c2ccnc(Cl)n2)ccc1Cl` (racemic) [Example 136, rac-2-Chloro-5-(2-chloro-pyrimidine-4-sulfinyl)-N-(1-hydroxy-cyclohexylmethyl)-benzamide] is 640 nM; for `COc1nccc([S+]([O-])c2ccc(Cl)c(C(=O)NCC3(O)CCCCC3)c2)n1` (racemic) [Example 140, rac-2-Chloro-N-(1-hydroxy-cyclohexylmethyl)-5-(2-methoxy-pyrimidine-4-sulfinyl)-benzamide] it is 914 nM; for `O=C(NCC1(O)CCCCC1)c1cc(C(F)c2cc[nH]c(=O)n2)ccc1Cl` (racemic) [Example 152, rac-2-Chloro-5-[fluoro-(2-oxo-1,2-dihydro-pyrimidin-4-yl)-methyl]-N-(1-hydroxy-cyclohexylmethyl)-benzamide] it is 25 nM.
With `CC(O)(c1ccc(Cl)c(C(=O)NCC2(O)CCCCC2)c1)c1cc[nH]c(=O)n1` (racemic) [Example 156, rac-2-Chloro-N-(1-hydroxy-cyclohexylmethyl)-5-[1-hydroxy-1-(2-oxo-1,2-dihydro-pyrimidin-4-yl)-ethyl]-benzamide], the IC50 turned out to be 14 nM.
The figure for `COc1nccc(C(C)(O)c2ccc(Cl)c(C(=O)NCC3(O)CCCCC3)c2)n1` (racemic) [Example 159, rac-2-Chloro-N-(1-hydroxy-cyclohexylmethyl)-5-[1-hydroxy-1-(2-methoxy-pyrimidin-4-yl)-ethyl]-benzamide] is 346 nM.
For the compound `CC(O)(c1ccc(Cl)c(C(=O)NCC2(O)CCCCC2)c1)c1cc[nH]c(=O)n1` (single isomer, unassigned) [Example 157, 2-Chloro-N-(1-hydroxy-cyclohexylmethyl)-5-[1-hydroxy-1-(2-oxo-1,2-dihydro-pyrimidin-4-yl)-ethyl]-benzamide], the IC50 was 9 nM.
The figure for `CC(O)(c1ccc(Cl)c(C(=O)NCC2(O)CCCCC2)c1)c1cc[nH]c(=O)n1` (single isomer, unassigned) [Example 158] is 66 nM.
As to `O=C(NCC1(O)CCCCC1)c1cc(Nc2ccccc2)ccc1Cl` [Example 1, 2-Chloro-N-(1-hydroxy-cyclohexylmethyl)-5-phenylamino-benzamide], the IC50 turned out to be 111 nM.
The figure for `CN(c1ccccc1)c1ccc(Cl)c(C(=O)NCC2(O)CCCCC2)c1` [Example 2, 2-Chloro-N-(1-hydroxy-cyclohexylmethyl)-5-(methyl-phenyl-amino)-benzamide] is 315 nM.
Turning to `COCCN(c1ccccc1)c1ccc(Cl)c(C(=O)NCC2(O)CCCCC2)c1` [Example 3, 2-Chloro-N-(1-hydroxy-cyclohexylmethyl)-5-[(2-methoxy-ethyl)-phenyl-amino]-benzamide], the IC50 amounted to 538 nM.
For the compound `O=C(NCC1(O)CCCCC1)c1cc(Nc2ccccc2F)ccc1Cl` [Example 4, 2-Chloro-5-(2-fluoro-phenylamino)-N-(1-hydroxy-cyclohexylmethyl)-benzamide], the IC50 stood at 103 nM.
As for `CN(c1ccc(Cl)c(C(=O)NCC2(O)CCCCC2)c1)c1ccccc1F` [Example 5, 2-Chloro-5-[(2-fluoro-phenyl)-methyl-amino]-N-(1-hydroxy-cyclohexylmethyl)-benzamide], the figure is 531 nM; as for `O=C(NCC1(O)CCCCC1)c1cc(Nc2ccc(F)cc2F)ccc1Cl` [Example 6, 2-Chloro-5-(2,4-difluoro-phenylamino)-N-(1-hydroxy-cyclohexylmethyl)-benzamide], 154 nM.
The figure for `CN(c1ccc(Cl)c(C(=O)NCC2(O)CCCCC2)c1)c1ccc(F)cc1F` [Example 7, 2-Chloro-5-[(2,4-difluoro-phenyl)-methyl-amino]-N-(1-hydroxy-cyclohexylmethyl)-benzamide] is 876 nM.
As for `O=C(NCC1(O)CCCCC1)c1cc(Nc2ccncn2)ccc1Cl` [Example 8, 2-Chloro-N-(1-hydroxy-cyclohexylmethyl)-5-(pyrimidin-4-ylamino)-benzamide], the figure is 459 nM; as for `CN(c1ccc(Cl)c(C(=O)NCC2(O)CCCCC2)c1)c1ccncn1` [Example 9, 2-Chloro-N-(1-hydroxy-cyclohexylmethyl)-5-(methyl-pyrimidin-4-yl-amino)-benzamide], 481 nM; as for `O=C(NCC1(O)CCCCC1)c1cc(Nc2ccnc(Cl)n2)ccc1Cl` [Example 10, 2-Chloro-5-(2-chloro-pyrimidin-4-ylamino)-N-(1-hydroxy-cyclohexylmethyl)-benzamide], 890 nM.
`CN(c1ccc(Cl)c(C(=O)NCC2(O)CCCCC2)c1)c1ccnc(Cl)n1` [Example 11, 2-Chloro-5-[(2-chloro-pyrimidin-4-yl)-methyl-amino]-N-(1-hydroxy-cyclohexylmethyl)-benzamide]: the IC50 came to 184 nM.
The figure for `COc1nccc(Nc2ccc(Cl)c(C(=O)NCC3(O)CCCCC3)c2)n1` [Example 12, 2-Chloro-N-(1-hydroxy-cyclohexylmethyl)-5-(2-methoxy-pyrimidin-4-ylamino)-benzamide] is 733 nM.
For `COc1nccc(N(C)c2ccc(Cl)c(C(=O)NCC3(O)CCCCC3)c2)n1` [Example 13, 2-Chloro-N-(1-hydroxy-cyclohexylmethyl)-5-[(2-methoxy-pyrimidin-4-yl)-methyl-amino]-benzamide], the IC50 worked out at 200 nM.
The figure for `CNc1nccc(N(C)c2ccc(Cl)c(C(=O)NCC3(O)CCCCC3)c2)n1` [Example 14, 2-Chloro-N-(1-hydroxy-cyclohexylmethyl)-5-[methyl-(2-methylamino-pyrimidin-4-yl)-amino]-benzamide] is 127 nM.
The figure for `CN(C)c1nccc(N(C)c2ccc(Cl)c(C(=O)NCC3(O)CCCCC3)c2)n1` [Example 15, 2-Chloro-5-[(2-dimethylamino-pyrimidin-4-yl)-methyl-amino]-N-(1-hydroxy-cyclohexylmethyl)-benzamide] is 177 nM; for `O=C(NCC1(O)CCCCC1)c1cc(Nc2ccnc(O)n2)ccc1Cl` [Example 16, 2-Chloro-N-(1-hydroxy-cyclohexylmethyl)-5-(2-hydroxypyrimidin-4-ylamino)-benzamide] it is 73 nM.
The figure for `CN(c1ccc(Cl)c(C(=O)NCC2(O)CCCCC2)c1)c1cc[nH]c(=O)n1` [Example 17, 2-Chloro-N-(1-hydroxy-cyclohexylmethyl)-5-[methyl-(2-oxo-1,2-dihydro-pyrimidin-4-yl)-amino]-benzamide] is 35 nM; for `CN(c1ccc(Cl)c(C(=O)NCC2(O)CCCCC2)c1)c1ccnc(=O)n1C` [Example 18, 2-Chloro-N-(1-hydroxy-cyclohexylmethyl)-5-[methyl-(3-methyl-2-oxo-2,3-dihydro-pyrimidin-4-yl)-amino]-benzamide] it is 106 nM; for `CN(c1ccc(Cl)c(C(=O)NCC2(O)CCCCC2)c1)c1ccn(C)c(=O)n1` [Example 19, 2-Chloro-N-(1-hydroxy-cyclohexylmethyl)-5-[methyl-(1-methyl-2-oxo-1,2-dihydro-pyrimidin-4-yl)-amino]-benzamide] it is 420 nM.
As for `CCN(c1ccc(Cl)c(C(=O)NCC2(O)CCCCC2)c1)c1ccnc(Cl)n1` [Example 20, 2-Chloro-5-[(2-chloro-pyrimidin-4-yl)-ethyl-amino]-N-(1-hydroxy-cyclohexylmethyl)-benzamide], the IC50 worked out at 228 nM.
